Key:
[1] = AUC in mouse at 20 mg/kg, po; type: ADME, organism-based; set-up: dose 20 mg/kg, route po; settings: in vivo
[2] = MRT in mouse at 20 mg/kg, po; type: ADME, organism-based; settings: in vivo
[3] = Inhibition of CYP2D9 (unknown origin); type: ADME, Homo sapiens
[4] = molecular target: T1, Toll-like receptor 4 (Homo sapiens, UniProt O00206); experiment: Antagonist activity at TLR4 in human PBMC cells assessed as reduction in IL-6 level measured after 20 hrs by AlphaLISA assay; type: cell-based
T1 sequence (O00206 whole entry): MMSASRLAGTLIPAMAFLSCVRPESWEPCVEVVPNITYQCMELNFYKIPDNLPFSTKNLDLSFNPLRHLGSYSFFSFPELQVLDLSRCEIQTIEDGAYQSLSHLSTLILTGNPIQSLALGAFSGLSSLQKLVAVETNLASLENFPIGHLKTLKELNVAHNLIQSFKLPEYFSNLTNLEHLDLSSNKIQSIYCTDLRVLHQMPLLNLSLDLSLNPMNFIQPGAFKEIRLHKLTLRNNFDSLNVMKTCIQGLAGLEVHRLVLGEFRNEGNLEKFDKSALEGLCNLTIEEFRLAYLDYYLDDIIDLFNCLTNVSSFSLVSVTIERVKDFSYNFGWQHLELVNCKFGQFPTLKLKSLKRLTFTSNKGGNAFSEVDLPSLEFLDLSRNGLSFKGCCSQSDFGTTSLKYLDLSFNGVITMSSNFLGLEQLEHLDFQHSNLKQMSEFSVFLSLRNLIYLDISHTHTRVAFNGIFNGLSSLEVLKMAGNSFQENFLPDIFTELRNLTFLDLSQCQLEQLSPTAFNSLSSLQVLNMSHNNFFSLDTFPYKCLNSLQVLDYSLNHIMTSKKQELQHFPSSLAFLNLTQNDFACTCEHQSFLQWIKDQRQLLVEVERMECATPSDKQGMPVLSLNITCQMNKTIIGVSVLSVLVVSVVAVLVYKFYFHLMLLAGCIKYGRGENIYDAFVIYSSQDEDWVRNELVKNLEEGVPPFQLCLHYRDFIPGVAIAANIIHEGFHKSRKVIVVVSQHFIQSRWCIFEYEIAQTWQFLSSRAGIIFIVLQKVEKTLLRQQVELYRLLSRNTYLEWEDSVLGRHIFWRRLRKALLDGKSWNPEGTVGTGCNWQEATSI

[5] = molecular target: T1, Toll-like receptor 4; experiment: Antagonist activity at TLR4 in human Whole blood cell assessed as reduction in IL-6 level measured after 30 mins; type: tissue-based
[6] = molecular target: T2, Toll-like receptor 7 (Homo sapiens, UniProt Q9NYK1); experiment: Antagonist activity at TLR7 in human Whole blood cell assessed as reduction in IFN-alpha level measured after 30 mins; type: tissue-based
T2 sequence (Q9NYK1 whole entry): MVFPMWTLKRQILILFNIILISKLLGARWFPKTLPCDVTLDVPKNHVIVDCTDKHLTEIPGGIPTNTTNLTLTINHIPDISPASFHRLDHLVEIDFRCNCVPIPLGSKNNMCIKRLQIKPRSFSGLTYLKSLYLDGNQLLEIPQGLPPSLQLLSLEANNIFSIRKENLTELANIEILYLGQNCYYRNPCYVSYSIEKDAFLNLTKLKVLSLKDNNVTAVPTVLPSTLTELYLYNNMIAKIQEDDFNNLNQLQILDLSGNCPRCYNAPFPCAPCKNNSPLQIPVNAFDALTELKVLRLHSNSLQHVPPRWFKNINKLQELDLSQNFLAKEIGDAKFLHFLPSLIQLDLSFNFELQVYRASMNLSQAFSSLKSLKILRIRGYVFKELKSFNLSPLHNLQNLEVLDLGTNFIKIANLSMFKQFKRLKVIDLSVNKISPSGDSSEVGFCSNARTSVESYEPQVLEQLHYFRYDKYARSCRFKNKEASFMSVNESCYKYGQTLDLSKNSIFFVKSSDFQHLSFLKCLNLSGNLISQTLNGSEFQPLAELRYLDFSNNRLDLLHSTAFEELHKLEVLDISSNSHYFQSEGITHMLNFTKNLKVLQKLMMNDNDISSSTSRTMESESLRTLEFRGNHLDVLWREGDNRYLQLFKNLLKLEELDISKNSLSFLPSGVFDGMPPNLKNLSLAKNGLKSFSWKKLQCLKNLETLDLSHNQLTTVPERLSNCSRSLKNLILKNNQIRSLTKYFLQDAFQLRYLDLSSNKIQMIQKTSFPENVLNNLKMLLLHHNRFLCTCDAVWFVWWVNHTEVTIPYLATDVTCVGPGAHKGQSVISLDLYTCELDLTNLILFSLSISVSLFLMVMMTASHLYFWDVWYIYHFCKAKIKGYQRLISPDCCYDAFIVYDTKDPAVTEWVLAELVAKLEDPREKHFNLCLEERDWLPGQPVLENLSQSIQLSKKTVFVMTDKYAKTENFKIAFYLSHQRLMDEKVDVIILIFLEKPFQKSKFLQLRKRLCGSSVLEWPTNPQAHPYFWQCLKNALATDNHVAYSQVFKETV

[7] = molecular target: T3, Toll-like receptor 9 (Mus musculus, UniProt Q9EQU3); experiment: Antagonist activity at TLR9 in mouse Whole blood cell assessed as reduction in IFN-alpha level measured after 20 hrs by AlphaLISA method; type: tissue-based
T3 sequence (Q9EQU3 whole entry): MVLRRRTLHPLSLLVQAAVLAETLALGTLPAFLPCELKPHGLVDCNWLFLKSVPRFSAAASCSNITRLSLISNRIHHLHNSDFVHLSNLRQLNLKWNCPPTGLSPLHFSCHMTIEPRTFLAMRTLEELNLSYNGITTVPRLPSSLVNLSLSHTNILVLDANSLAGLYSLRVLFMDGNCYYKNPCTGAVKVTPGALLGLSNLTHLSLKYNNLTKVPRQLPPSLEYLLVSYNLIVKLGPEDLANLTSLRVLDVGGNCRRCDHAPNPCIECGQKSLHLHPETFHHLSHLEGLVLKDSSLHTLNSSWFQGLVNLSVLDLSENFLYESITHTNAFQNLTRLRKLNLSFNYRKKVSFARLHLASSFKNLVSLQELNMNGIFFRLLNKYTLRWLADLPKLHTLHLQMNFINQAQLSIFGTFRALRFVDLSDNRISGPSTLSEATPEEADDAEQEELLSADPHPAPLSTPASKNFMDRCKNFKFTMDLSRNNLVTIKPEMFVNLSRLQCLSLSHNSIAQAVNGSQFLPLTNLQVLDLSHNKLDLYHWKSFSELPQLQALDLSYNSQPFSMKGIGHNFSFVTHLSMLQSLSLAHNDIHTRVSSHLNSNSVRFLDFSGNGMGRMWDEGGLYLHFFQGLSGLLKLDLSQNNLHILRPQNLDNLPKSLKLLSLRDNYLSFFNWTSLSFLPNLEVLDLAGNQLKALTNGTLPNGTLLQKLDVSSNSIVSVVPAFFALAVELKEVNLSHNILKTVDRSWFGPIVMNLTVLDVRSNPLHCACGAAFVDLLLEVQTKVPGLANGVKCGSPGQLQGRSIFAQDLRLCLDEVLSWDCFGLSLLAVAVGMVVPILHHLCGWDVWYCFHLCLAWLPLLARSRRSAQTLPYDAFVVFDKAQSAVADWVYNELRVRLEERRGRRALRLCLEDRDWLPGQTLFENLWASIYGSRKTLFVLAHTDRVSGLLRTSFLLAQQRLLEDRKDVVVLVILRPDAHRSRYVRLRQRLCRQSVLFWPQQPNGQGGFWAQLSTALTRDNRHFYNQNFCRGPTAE

[8] = molecular target: Toll-like receptor 7 (Mus musculus) (UniProt P58681); experiment: In vivo antagonist activity against TLR7 in mouse assessed as inhibition of IL-6 level at 10 mg/kg, po measured after 2 hrs by LC-MS/MS analysis relative to control
[9] = molecular target: Toll-like receptor 7 (Mus musculus) (UniProt P58681); experiment: In vivo antagonist activity against TLR7 in mouse assessed as inhibition of IFN alpha level at 10 mg/kg, po measured after 2 hrs by LC-MS/MS analysis relative to control

Row | Compound | AUC [1] | MRT [2] | IC50 [3] | IC50 [4] | IC50 [5] | IC50 [6] | IC50 [7] | inhibition in vivo at 10 mg/kg [8] | inhibition in vivo at 10 mg/kg [9]
1 | Cc1cc(N2CCc3c(c(C)nn3CC34CCC(N)(CC3)CC4)C2)c2cnn(C)c2n1 | 1.15 µM·h | 2.9 h | > 25 µM |  |  |  |  |  | 
2 | Cc1cc(N2CCc3c(c(C)nn3CC34CCC(NC(=O)[C@@H]5COCCN5)(CC3)CC4)C2)c2cnn(C)c2n1 [MHV-370] |  |  |  | > 10 µM | > 10 µM | 0.007 µM | > 10 µM | ~100% | ~100%

Source: ChEMBL document CHEMBL5360657, “Discovery of the TLR7/8 Antagonist MHV370 for Treatment of Systemic Autoimmune Diseases” (ACS Med Chem Lett, 2023)
